Active and inactive are the calls of the source. The rule behind the calls is not given here.
What was measured:
[1] = target: T1, Alpha-1D adrenergic receptor (Rattus norvegicus, UniProt P23944); experiment: Antagonist activity at alpha1D adrenoreceptor in Rattus norvegicus (rat) aorta assessed as inhibition of phenylephrine-indued contraction; details: read-out: pA2 (converted)
T1 sequence (P23944 whole entry): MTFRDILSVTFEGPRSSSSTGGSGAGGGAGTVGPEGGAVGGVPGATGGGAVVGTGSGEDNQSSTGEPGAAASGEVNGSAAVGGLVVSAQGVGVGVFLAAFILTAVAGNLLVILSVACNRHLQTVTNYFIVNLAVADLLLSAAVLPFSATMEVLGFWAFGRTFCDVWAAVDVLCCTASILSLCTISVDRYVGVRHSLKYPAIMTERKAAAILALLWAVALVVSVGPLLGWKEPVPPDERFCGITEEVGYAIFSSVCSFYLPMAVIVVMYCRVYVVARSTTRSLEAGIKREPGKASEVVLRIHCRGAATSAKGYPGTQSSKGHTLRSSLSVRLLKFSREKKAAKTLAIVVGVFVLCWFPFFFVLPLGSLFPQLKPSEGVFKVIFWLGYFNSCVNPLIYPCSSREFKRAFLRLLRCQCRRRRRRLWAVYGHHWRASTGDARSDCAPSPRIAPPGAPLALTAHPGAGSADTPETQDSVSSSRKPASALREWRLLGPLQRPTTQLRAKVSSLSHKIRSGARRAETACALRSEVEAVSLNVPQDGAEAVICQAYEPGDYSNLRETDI

[2] = target: T2, Alpha-1B adrenergic receptor (Rattus norvegicus, UniProt P15823); experiment: Antagonist activity at alpha1B adrenoreceptor in Rattus norvegicus (rat) spleen assessed as inhibition of phenylephrine-indued contraction; details: read-out: pA2 (converted)
T2 sequence (P15823 whole entry): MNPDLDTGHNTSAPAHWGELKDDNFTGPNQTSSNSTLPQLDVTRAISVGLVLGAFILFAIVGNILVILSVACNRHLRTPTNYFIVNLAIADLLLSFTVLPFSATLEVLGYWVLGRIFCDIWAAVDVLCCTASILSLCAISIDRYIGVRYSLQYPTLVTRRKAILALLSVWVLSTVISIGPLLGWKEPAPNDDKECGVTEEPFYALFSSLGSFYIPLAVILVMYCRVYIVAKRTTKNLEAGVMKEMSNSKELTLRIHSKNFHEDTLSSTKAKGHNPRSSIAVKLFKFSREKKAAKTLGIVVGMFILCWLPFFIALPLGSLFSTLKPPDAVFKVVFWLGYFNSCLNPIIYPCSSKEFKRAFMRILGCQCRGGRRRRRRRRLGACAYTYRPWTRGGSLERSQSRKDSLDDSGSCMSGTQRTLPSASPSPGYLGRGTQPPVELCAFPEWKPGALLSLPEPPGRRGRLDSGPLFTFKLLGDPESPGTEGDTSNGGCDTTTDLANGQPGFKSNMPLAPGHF

[3] = target: T3, Alpha-1A adrenergic receptor (Rattus norvegicus, UniProt P43140); experiment: Binding affinity to alpha1A adrenoreceptor in Rattus norvegicus (rat) submaxillary gland by radioligand displacement assay
T3 sequence (P43140 whole entry): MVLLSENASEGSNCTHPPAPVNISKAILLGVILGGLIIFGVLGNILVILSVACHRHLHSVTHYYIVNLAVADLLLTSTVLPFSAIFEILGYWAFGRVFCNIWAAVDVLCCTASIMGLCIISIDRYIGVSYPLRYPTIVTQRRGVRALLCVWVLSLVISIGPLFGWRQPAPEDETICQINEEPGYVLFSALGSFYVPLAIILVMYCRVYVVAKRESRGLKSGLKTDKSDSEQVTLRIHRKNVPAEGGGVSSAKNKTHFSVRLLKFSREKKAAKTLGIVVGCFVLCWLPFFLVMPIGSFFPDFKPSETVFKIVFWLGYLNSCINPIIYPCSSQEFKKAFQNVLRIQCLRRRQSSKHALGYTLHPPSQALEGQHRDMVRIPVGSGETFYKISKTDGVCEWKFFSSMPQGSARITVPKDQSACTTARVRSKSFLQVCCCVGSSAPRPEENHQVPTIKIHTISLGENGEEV

[4] = target: T1, Alpha-1D adrenergic receptor; experiment: Binding affinity to Rattus norvegicus (rat) alpha1D adrenoreceptor by radioligand displacement assay
[5] = target: T4, Alpha-1B adrenergic receptor (Mesocricetus auratus, UniProt P18841); experiment: Binding affinity to Cricetinae (hamster) alpha1B adrenoreceptor by radioligand displacement assay
T4 sequence (P18841 whole entry): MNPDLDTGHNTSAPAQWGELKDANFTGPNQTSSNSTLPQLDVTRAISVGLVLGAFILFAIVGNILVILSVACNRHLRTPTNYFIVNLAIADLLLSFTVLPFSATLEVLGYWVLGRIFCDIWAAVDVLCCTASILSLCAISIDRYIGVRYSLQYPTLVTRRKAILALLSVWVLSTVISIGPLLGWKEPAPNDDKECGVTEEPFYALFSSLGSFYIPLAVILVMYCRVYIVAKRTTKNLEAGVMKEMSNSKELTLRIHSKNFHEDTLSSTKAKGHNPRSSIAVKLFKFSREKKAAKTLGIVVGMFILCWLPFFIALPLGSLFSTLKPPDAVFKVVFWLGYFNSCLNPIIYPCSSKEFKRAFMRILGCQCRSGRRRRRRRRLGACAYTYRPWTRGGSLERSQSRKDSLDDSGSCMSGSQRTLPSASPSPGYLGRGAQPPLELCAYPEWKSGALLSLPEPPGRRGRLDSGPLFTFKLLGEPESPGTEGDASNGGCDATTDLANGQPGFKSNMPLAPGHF

[6] = target: T5, Alpha-1B adrenergic receptor (Rattus norvegicus) (UniProt P15823); experiment: (§1) Agonist activity at alpha1B adrenoreceptor in Rattus norvegicus (rat) spleen
T5 sequence (whole entry): T2 sequence (P15823 whole entry)

[7] = target: T6, Alpha-1A adrenergic receptor (Oryctolagus cuniculus) (UniProt O02824); experiment: (§2) Agonist activity at alpha1A adrenoreceptor in Oryctolagus cuniculus (rabbit) urethra
T6 sequence (whole entry): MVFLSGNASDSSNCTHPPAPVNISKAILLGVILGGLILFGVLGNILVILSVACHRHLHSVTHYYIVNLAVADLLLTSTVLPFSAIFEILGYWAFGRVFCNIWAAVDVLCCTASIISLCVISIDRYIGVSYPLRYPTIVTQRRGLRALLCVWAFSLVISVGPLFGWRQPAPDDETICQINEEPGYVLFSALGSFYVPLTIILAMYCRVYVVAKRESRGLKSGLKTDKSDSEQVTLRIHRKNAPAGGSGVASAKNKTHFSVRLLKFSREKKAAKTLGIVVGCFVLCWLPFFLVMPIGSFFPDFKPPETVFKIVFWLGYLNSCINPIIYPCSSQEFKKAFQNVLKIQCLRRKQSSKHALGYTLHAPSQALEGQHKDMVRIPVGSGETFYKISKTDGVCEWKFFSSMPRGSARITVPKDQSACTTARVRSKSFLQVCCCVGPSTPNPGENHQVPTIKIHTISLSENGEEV

Canis familiaris [8] = experiment: Pressor activity in Canis lupus familiaris (dog) assessed as increase in mean arterial blood pressure at 100 nmol/kg, iv; type: ADME, organism-based; details: in vivo
Canis familiaris [9] = experiment: Pressor activity in Canis lupus familiaris (dog) assessed as increase in mean arterial blood pressure at 100 nmol/kg, iv in presence of prazosin; type: ADME, organism-based; details: in vivo
[10] = target: T5, Alpha-1B adrenergic receptor (Rattus norvegicus); experiment: Agonist activity at alpha1B adrenoreceptor in Rattus norvegicus (rat) spleen relative to phenylephrine
Canis familiaris [11] = experiment: Pressor activity in Canis lupus familiaris (dog) assessed as increase in mean arterial blood pressure at 100 nmol/kg, iv in presence of idazoxan; type: ADME, organism-based; details: in vivo
[12] = target: T7, Alpha-1A adrenergic receptor (Oryctolagus cuniculus, UniProt O02824); experiment: as §2
T7 sequence (O02824 whole entry): T6 sequence (whole entry)

[13] = target: T1, Alpha-1D adrenergic receptor; experiment: Agonist activity at alpha1D adrenoreceptor in Rattus norvegicus (rat) aorta
Canis familiaris [14] = experiment: Selectivity index, ratio of ED20 for change in mean arterial pressure to ED5 for effect on intraurethral pressure in iv dosed Canis lupus familiaris (dog); design: species or system Artery
[15] = target: T2, Alpha-1B adrenergic receptor; experiment: as §1
[16] = target: T8, Alpha-1D adrenergic receptor (Rattus norvegicus) (UniProt P23944); experiment: Agonist activity at alpha1D adrenoreceptor in Rattus norvegicus (rat) aorta relative to phenylephrine
T8 sequence (whole entry): T1 sequence (P23944 whole entry)

[17] = target: T6, Alpha-1A adrenergic receptor (Oryctolagus cuniculus); experiment: Agonist activity at alpha1A adrenoreceptor in Oryctolagus cuniculus (rabbit) urethra relative to phenylephrine

Row | Structure (SMILES) | Ki [3] | Ki [4] | Ki [5] | pEC50 [6] | also measured
1 | CCS(=O)(=O)Nc1cccc(Cc2c[nH]cn2)c1C |  |  |  |  | Kb [1]: 5.89 µM; Kb [2]: 15.1 µM
2 | O=S(=O)(Nc1c(O)ccc2c1CCCC2C1=NCCN1)C(F)(F)F (stereo unspecified) | > 3.16 µM | > 3.16 µM | > 3.16 µM |  | 
3 | Cn1cncc1C1CCCc2c(NS(C)(=O)=O)cccc21 (stereo unspecified) | > 10 µM | > 10 µM | > 10 µM | inactive | pEC50 [7]: inactive
4 | CS(=O)(=O)Nc1cccc2c1CCCCC2c1c[nH]cn1 (stereo unspecified) |  |  |  | inactive | 
5 | CCS(=O)(=O)Nc1cccc(Cc2c[nH]cn2)c1 |  |  |  |  | Kb [1]: 0.661 µM; Activity (Canis familiaris [8]): Toxic; Activity (Canis familiaris [9]): Non-toxic; Efficacy [10]: 11%; Activity (Canis familiaris [11]): Toxic; Kb [2]: 4.07 µM
6 | COc1ccc2c(c1NS(C)(=O)=O)CCCC2C1=NCCN1 (stereo unspecified) | 0.617 µM | 1.55 µM | 3.47 µM |  | 
7 | O=S(=O)(Nc1cccc2c1CCCC2c1c[nH]cn1)C1CC1 (stereo unspecified) |  |  | > 10 µM | inactive | EC50 [12]: 5.62 µM
8 | COC(=O)Nc1cccc2c1CCCC2c1c[nH]cn1 (stereo unspecified) |  |  |  | inactive | pEC50 [7]: inactive
9 | CN(c1c(O)ccc2c1CCCC2C1=NCCN1)S(C)(=O)=O (stereo unspecified) | 5.5 µM | 18.2 µM | 15.8 µM |  | 
10 | CCS(=O)(=O)Nc1cccc2c1CCCC2c1c[nH]c(C)n1 (stereo unspecified) |  | > 10 µM | > 10 µM | inactive | pEC50 [7]: inactive
11 | COC(=O)Nc1c(O)ccc2c1CCCC2C1=NCCN1 (stereo unspecified) | 0.288 µM | 8.51 µM | 10 µM |  | 
12 | CC(N)C(O)c1ccccc1 (stereo unspecified) [PHENYLPROPANOLAMINE] |  |  |  |  | EC50 [13]: 75.9 µM; Selectivity Index (Canis familiaris [14]): 0.4; EC50 [15]: 282 µM; EC50 [12]: 234 µM
13 | CS(=O)(=O)Nc1c(O)ccc2c1CCCC2C1=NCCN1 (stereo unspecified) |  |  |  |  | Efficacy [16]: 99%; Efficacy [17]: 88%
14 | Nc1cccc2c1CCCC2c1c[nH]cn1 (stereo unspecified) | 0.126 µM |  |  |  | EC50 [15]: 0.977 µM; EC50 [12]: 0.275 µM
15 | O=S(=O)(Nc1c(O)ccc2c1CCCC2C1=NCCN1)c1ccccc1 (stereo unspecified) | > 3.16 µM | > 3.16 µM | > 3.16 µM |  | 
16 | NC(=O)Nc1c(O)ccc2c1CCCC2C1=NCCN1 (stereo unspecified) | 7.08 µM | 5.5 µM | 10 µM |  | 
17 | CC(C)S(=O)(=O)Nc1cccc2c1CCCC2c1c[nH]cn1 (stereo unspecified) |  |  | > 10 µM |  | Efficacy [10]: 8%; EC50 [15]: 14.1 µM; EC50 [12]: 6.76 µM
18 | O=S(=O)(CC(F)(F)F)Nc1cccc2c1CCCC2c1c[nH]cn1 (stereo unspecified) |  | > 10 µM | > 10 µM | inactive | Kb [1]: 27.5 µM; Efficacy [17]: 64%; Kb [2]: 42.7 µM
19 | CCS(=O)(=O)Nc1cccc2c1CCC[C@H]2c1c[nH]cn1 | 0.0468 µM | 1.07 µM | 1.32 µM |  | Kb [1]: 7.24 µM; Efficacy [17]: 71%; Efficacy [10]: 11%; Selectivity Index (Canis familiaris [14]): 3.3; EC50 [15]: 3.8 µM; Kb [2]: 13.8 µM; EC50 [12]: 0.17 µM
20 | CCS(=O)(=O)Nc1c(O)ccc2c1CCCC2C1=NCCN1 (stereo unspecified) | 0.0603 µM | 2.19 µM | 4.27 µM |  | 
21 | COc1ccc(OC)c(C(O)CN)c1 (stereo unspecified) [DESGLYMIDODRINE] |  |  |  |  | EC50 [13]: 1.86 µM; Selectivity Index (Canis familiaris [14]): 1.3; EC50 [12]: 7.08 µM
22 | CCS(=O)(=O)Nc1cccc2c1CCCC2c1c[nH]cn1 (stereo unspecified) |  |  |  | inactive | 
23 | Cn1cnc(C2CCCc3c(NS(C)(=O)=O)cccc32)c1 (stereo unspecified) |  | 3.63 µM | 1.05 µM |  | 
24 | CCCS(=O)(=O)Nc1cccc2c1CCCC2c1c[nH]cn1 (stereo unspecified) |  | > 10 µM | > 10 µM | inactive | pEC50 [7]: inactive
25 | CCCS(=O)(=O)Nc1c(O)ccc2c1CCCC2C1=NCCN1 (stereo unspecified) | 0.776 µM | 1.86 µM | 3.09 µM |  | 
